Among the data in PubChem BioAssay (NCI) are GI50 and TGI values, retold here.

What all share (assay): NCI-60 cell line screen, 48 h
Test [1] relates to DU-145 prostate.
Test [2] deals with MDA-MB-231 breast.
Test [3] deals with MDA-MB-435.
In test [4] the test system is PC-3 prostate.

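Results reflect a 48-hour exposure of cells in 96-well plates to compound at five concentrations. GI50: concentration for 50% inhibition of growth. Definition used: TGI = concentration required for complete inhibition of growth.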

On to `COc1ccc2c(c1)C(=O)c1c-2n(CCCN)c(=O)c2cc(OC)c(OC)cc12`, for which the GI50 is under 0.01 µM in test [1], 0.57 µM in test [2], 1.33 µM in test [3] and 0.205 µM in test [4]. Besides, the TGI in test [1] was determined as 0.153 µM; in test [2], 1.86 µM; in test [3], 2.86 µM; in test [4] it was 1.27 µM.
In the case of `CC1CCc2c(c(CC3CC(=O)NC(=O)C3)nn2-c2ccccc2)C1` (stereo unspecified), the TGI in test [1], in test [2], in test [3] and in test [4] was over 100 µM each time.
On to `COc1ccc(-c2nc(-c3cnccn3)n(COCCO)n2)cc1`, for which the TGI in test [1], in test [2], in test [3] and in test [4] was over 100 µM each time.
Take `COc1cc2ncn(-c3cc(OCc4ccccc4C(F)(F)F)c(C(C)=O)s3)c2cc1OC`: the GI50 in test [1] is over 25 µM; in test [2] it was 24.2 µM; in test [3], 17.6 µM; in test [4], over 25 µM. The TGI in test [1], in test [2], in test [3] and in test [4] was over 25 µM throughout.
On to `CC1=NN(C(=O)c2ccncc2)C(=O)C1N=Nc1ccc2ccccc2c1` (stereo unspecified), for which the TGI in test [1] was over 100 µM; in test [2], over 100 µM; in test [3], 15.2 µM; in test [4] it was over 100 µM.
As to `CCOC(=O)c1cc(-c2ccc(OC)c(OC)c2)[nH]c1N/N=C/c1c(Cl)cccc1Cl`, the GI50 in test [1] was 2.38 µM; in test [2], 2.9 µM; in test [3], 0.307 µM; in test [4], 2.14 µM. Moreover, the TGI in test [1] came to 8.5 µM; in test [2], 8.84 µM; in test [3], 0.829 µM; in test [4] it was 19 µM.
As for `C=C1CCC2C3(C)COC(c4ccc(Cl)cc4)OC3CCC2(C)C1/C=C/C1=CCOC1=O` (stereo unspecified), the GI50 in test [1] is 24 µM; in test [2], 6.68 µM; in test [3], 4.19 µM; in test [4] it was 1.67 µM. The TGI was over 100 µM in test [1], over 100 µM in test [2], over 100 µM in test [3] and 69.9 µM in test [4].
For `COc1ccc(CNc2cnc3cc(N)cc(N)c3n2)cc1`, the GI50 in test [1] was 19.4 µM; in test [2], 14.2 µM; in test [3], 21.7 µM; in test [4], 34.2 µM. Moreover, the TGI in test [1] was 49.2 µM; in test [2] it was 29.6 µM; in test [3] it was 39 µM; in test [4] it was over 100 µM.
Regarding `CN1CCN(Cc2ccc(NC(=O)c3cncc(C#Cc4cnn5ccccc45)c3)cc2C(F)(F)F)CC1`, the GI50 in test [1] was 1.17 µM; in test [2] it was 0.608 µM; in test [3], 0.729 µM; in test [4], 1.01 µM. In addition, the TGI in test [1] came to 3.95 µM; in test [2], 3.05 µM; in test [3], 1.7 µM; in test [4] it was 4.19 µM.
Regarding `COC(=O)C1=C(O)[C@H](C(=O)OC)[C@]2(O)[C@@H](C(=O)OC)[C@H]1C[C@@H](c1ccc(OC(=O)/C=C/c3ccco3)cc1)[C@@H]2C(=O)OC`, the GI50 in test [3] was 21.7 µM; in test [4] it was 21.5 µM. In addition, the results for the TGI in test [3] and in test [4] were 66.8 µM and 88.3 µM, respectively.
On to `CC(C)(C)c1ccc(O)c(CN(Cc2cc(C(C)(C)C)ccc2O)C2CCCCC2)c1`, for which the TGI was determined as 45.4 µM in test [1], 30.4 µM in test [2], 29.8 µM in test [3] and 46.8 µM in test [4].
As for `C1CCN2CC3CCCN4CCCC(C2C1)C34` (stereo unspecified), the TGI in test [1], in test [2], in test [3] and in test [4] was over 100 µM in each case.
On to `CO[C@@H]1[C@H]2[C@@H](C)c3ccoc3C[C@@H]2[C@@]2(C)CC[C@H](OC(=O)c3ccccc3)[C@](C)(C(=O)O)[C@]2(O)[C@@H]1OC(=O)c1ccccc1`, for which the GI50 is 12.1 µM in test [1], 6.07 µM in test [2], 7.97 µM in test [3] and 16.4 µM in test [4]. For the same compound, the TGI is over 50 µM in test [1], 16 µM in test [2], 19.5 µM in test [3] and over 50 µM in test [4].
On to `COC(=O)C(=O)C(C(=O)C(=O)Nc1ccc(C)cc1)c1nc2ccc(C(=O)c3ccccc3)cc2[nH]c1=O` (stereo unspecified), for which the TGI in test [2], in test [3] and in test [4] was over 100 µM each time.
Take `C/C=C(/C)C(=O)OC1C=C(CO)C(=O)C(OC(=O)C(C)(O)C(C)Cl)C1C(C)C` (stereo unspecified): the GI50 was 1.13 µM in test [1], 0.758 µM in test [2], 1.35 µM in test [3] and 1.45 µM in test [4]. Further, the TGI worked out at 2.4 µM in test [1], 2.26 µM in test [2], 2.83 µM in test [3] and 3.3 µM in test [4].
Turning to `CC(C)(C)NC/C(=C\c1ccccc1)C(=O)c1ccccc1`, the GI50 in test [1] was 2.68 µM; in test [2], 2.72 µM; in test [3], 2.51 µM; in test [4], 3.44 µM. The TGI is 9.63 µM in test [1], 8.12 µM in test [2], 12.8 µM in test [3] and 13 µM in test [4].
In the case of `O=S(=O)(Nc1ccc2ccccc2c1)c1ccc(-c2cnc(C3CC3)o2)cc1`, the GI50 was 2.96 µM in test [1], 2.81 µM in test [2], 0.214 µM in test [3] and 1.69 µM in test [4]. The TGI is 20.4 µM in test [1], 14.2 µM in test [2], 0.598 µM in test [3] and 19.1 µM in test [4].
For `O=C(Cn1c(C(=O)c2ccccc2)nc2ccccc21)c1ccc(F)cc1`, the GI50 in test [1] is over 48.7 µM; in test [2] it was 15.7 µM; in test [3], 1.19 µM; in test [4], 13.6 µM. The TGI in test [1], in test [2] and in test [4] was over 100 µM throughout.
On to `O=C1NC(S(=O)(=O)O)=NNC12c1ccccc1-c1ccccc12`, for which the TGI in test [1], in test [2], in test [3] and in test [4] was over 10 µM in each case.
Turning to `Nc1nc(N)c(N=Nc2ccc(C(=O)O)c(O)c2)c(N)n1`, the TGI in test [1], in test [2], in test [3] and in test [4] was over 100 µM throughout.
Take `COC(=O)C1=C(C(=O)OC)C2OC1c1cc3ccccc3cc12`: the TGI worked out at 21.6 µM in test [1], 33.7 µM in test [2], 18 µM in test [3] and 32.2 µM in test [4].
Regarding `O=C(Nc1cccnc1)c1ccc2ccc3ccc(C(=O)Nc4cccnc4)nc3c2n1`, the GI50 was 0.195 µM in test [1], 0.226 µM in test [2], 0.184 µM in test [3] and 0.158 µM in test [4]. For the same compound, the TGI in test [1], in test [2], in test [3] and in test [4] was over 100 µM each time.
For the compound `CCOC(=O)c1csc(NC(=O)COc2cccc(/C=C3\CSc4ccccc4C3=O)c2)n1`, the GI50 is 0.409 µM in test [1], 3.87 µM in test [2], 2.05 µM in test [3] and 0.246 µM in test [4]. Also, the TGI was found to be 0.932 µM in test [1], 19.1 µM in test [2], 5.06 µM in test [3] and 1.52 µM in test [4].
As to `COc1ccc2c(c1)N(CCO)C1=C(C(=O)OC1)C2c1ccccc1` (stereo unspecified), the GI50 in test [1] is 1.74 µM; in test [2] it was 5.99 µM; in test [4] it was 1.75 µM. Also, the TGI is 6.01 µM in test [1], 41.7 µM in test [2] and over 50 µM in test [4].
Take `O=C(Nc1nc(-c2ccc(Cl)cc2)nc2c1sc(=S)n2-c1ccccc1)C(F)(F)F`: the GI50 in test [1] was 4.32 µM; in test [2], 3.64 µM; in test [3], 5.4 µM; in test [4], 8.95 µM. The TGI in test [1] was 25.3 µM; in test [2], 12.5 µM; in test [3], over 100 µM; in test [4], 71.4 µM.
The compound `CC(O[Si](c1ccccc1)(c1ccccc1)C(C)(C)C)[C@H](NC(=O)OC(C)(C)C)C(=O)O` (stereo partly specified) came in with a TGI in test [4] of 56.8 µM.
As for `CCCN1C(=O)/C(=C/c2ccc(O)cc2)SC1=Nc1ccc(OC)cc1`, the GI50 was 10.3 µM in test [1], 14.1 µM in test [2], 14.9 µM in test [3] and 14 µM in test [4]. In addition, the TGI is 29.5 µM in test [1], 31 µM in test [2], 31.2 µM in test [3] and 31.7 µM in test [4].
`CC(=O)O[C@H]1C(=O)[C@@]2(C)[C@H]([C@H](OC(=O)c3ccccc3)[C@@]3(O)C[C@H](O)C(C)=C1C3(C)C)[C@]1(OC(C)=O)CO[C@@H]1C[C@@H]2O`: the TGI in test [1] is over 100 µM; in test [2], over 100 µM; in test [3] it was 27.5 µM; in test [4], over 100 µM.
For the compound `CC(O)CN1c2ccccc2Sc2ccc(Cl)cc21` (stereo unspecified), the TGI in test [1], in test [2], in test [3] and in test [4] was over 10 µM in each case.
For the compound `CC[C@@H](C)Nc1cc(C(=O)NC2CC3CCC(C2)N3c2ccc(C(=O)C3CC3)cn2)c(C)cc1C(N)=O` (stereo partly specified), the GI50 in test [1] is 0.0663 µM; in test [2], 0.0538 µM; in test [3], 0.0391 µM; in test [4], 0.0469 µM. For the same compound, the TGI in test [1] is over 62.9 µM; in test [2] it was over 100 µM; in test [3], over 39.3 µM; in test [4], over 100 µM.
As to `O=c1c(-c2ccc(O)cc2)coc2cc(OC3OC(CO)C(O)C(O)C3O)cc(O)c12` (stereo unspecified), the TGI in test [1], in test [2], in test [3] and in test [4] was over 100 µM in each case. Further, the GI50 in test [3] is over 100 µM.
Regarding `N#Cc1c(N)nc(N2CCSCC2)c(C#N)c1-c1ccc(O)cc1`, the GI50 in test [1] was 27.1 µM; in test [2] it was 12.4 µM; in test [3], 19 µM; in test [4] it was 19.8 µM. Also, the TGI was over 100 µM in test [1], 27.5 µM in test [2], 49.6 µM in test [3] and over 100 µM in test [4].
Take `CC1CC(C)C2=NOS3=C2C1=NO3` (stereo unspecified): the TGI in test [1], in test [2], in test [3] and in test [4] was over 100 µM in each case.
Regarding `CCCCCCN(C)Cc1ccc(OCCOc2ccc(CN(C)CCCCCC)cc2)cc1`, the GI50 in test [1] was 2.57 µM; in test [2] it was 1.22 µM; in test [3] it was 1.04 µM; in test [4], 1.24 µM. Further, the TGI in test [1] amounted to 10.5 µM; in test [2], 2.84 µM; in test [3], 2.5 µM; in test [4] it was 2.8 µM.
With `COC(=O)c1ccc2c(c1)c1c(C)c3ccncc3c(C)c1n2C`, the GI50 in test [1] is 0.313 µM; in test [2], 0.391 µM; in test [3], 0.437 µM; in test [4] it was 0.3 µM. Moreover, the TGI in test [1] is over 100 µM; in test [2], over 100 µM; in test [3], 22.9 µM; in test [4], over 100 µM.
Regarding `C[C@@H]1CC[C@@H]2[C@@H](C)C[C@H]3[C@@H]4C(C)(C)OC(=O)[C@]4(C)C(=O)[C@@]23C1=O`, the TGI in test [1], in test [2], in test [3] and in test [4] was over 100 µM each time. Also, the GI50 in test [2] and in test [4] was over 100 µM throughout.
Turning to `CC[C@]12C=CCN3CC[C@@]4(c5ccc(OC)cc5N(C)[C@H]4[C@@](O)(C(=O)OC)[C@@H]1OC(=O)CCC(=O)N[C@H](Cc1c[nH]c4ccccc14)C(=O)OC)[C@@H]32`, the GI50 in test [1] was 4.44 µM; in test [2], 2.83 µM; in test [3], 5.42 µM; in test [4], 2.95 µM. Besides, the TGI in test [1] is 20.3 µM; in test [2], 9.54 µM; in test [3], 22.5 µM; in test [4], 17 µM.
Take `CCOc1c(C#N)c2c(N)ncnc2n1C1OC(CO)C(O)C1O` (stereo unspecified): the GI50 in test [1] is 2.72 µM; in test [2], 6.15 µM; in test [3], 3.15 µM; in test [4], 2.77 µM. Also, the TGI in test [1] is 11.8 µM; in test [2] it was over 82.9 µM; in test [3], 34.6 µM; in test [4], over 31.7 µM.
